This note sets out measurements from article PMC12736008, “New Dimethylpyridine-3-Carboxamide Derivatives as MMP-13 Inhibitors with Anticancer Activity” (Molecules, 2025).

This assay concerns the target T1, MMP-13 (Homo sapiens, UniProt P45452).
T1 construct: purchased Abcam ab139451
In words: MMP-13 inhibitor screening assay kit (fluorometric). The assay is classed as biochemical. The conditions noted are these: single-point screening; tested compounds 1.8 to 4.6 µM. Here is the method:
The inhibitory activity of the designed compounds against MMP-13 was evaluated using a commercial fluorometric MMP-13 inhibitor assay kit (Abcam, Cambridge, UK), following the manufacturer’s protocol. Solutions of the tested compounds were prepared at concentrations ranging from 1.8 to 4.6 µM. N-isobutyl-N-(4-methoxyphenylsulfonyl)glycyl hydroxamic acid (NNGH), a broad-spectrum inhibitor of matrix metalloproteinases, was used as positive control. […] In parallel, MMP-8 inhibition assays were also conducted using the same concentrations of compounds 3b, 3c, 3d, and 3g.
It should be emphasized that these assays were performed as single-point screening experiments, optimized for rapid qualitative assessment rather than full kinetic characterization. Consequently, the observed differences in activity between MMP-13 and MMP-8 are indicative trends supporting the selectivity predicted by computational studies, including docking, molecular dynamics simulations, and binding free energy calculations, rather than providing definitive quantitative evidence.
The inhibitory activity of the tested compounds was evaluated using the MMP-13 inhibitor screening assay kit (fluorometric) (Abcam, ab139451). The assay performed according to the manufacturer’s instructions. The designed compounds were tested at concentrations ranging from 1.8 to 4.6 µM, to determine their inhibitory activity. […]

On to `COc1ccc(S(=O)(=O)N(CC(=O)NO)CC(C)C)cc1` [NNGH, N-isobutyl-N-(4-methoxyphenylsulfonyl)glycyl hydroxamic acid, reference compound], for which the MMP-13 activity inhibition is on record as about 97%.
